test system: not listed separately; assay: In vivo pharmacokinetic analyses in rat; conditions: serum, PO dosing 5 mg/kg, read-out: Serum Cmax of parent compound
Description: One rat is dosed orally (5 mg/kg—dissolved in DMSO/H2O/propylenglycol [1:5:4]) and blood samples are taken from the sublingual venous plexus at 30 min, 1 h, 2 h, 4 h and 6 h. Blood samples are taken in BD Vacutainer SST serum separation tubes, serum is isolated by centrifugation, transferred to micronics tubes and subsequently analysed.
Mass spectrometer (API5000 series) parameters are optimised to analyse for the specific compounds and test injections are performed to confirm the validity of the established generic chromatography method. The generic method is based on fast gradient (2.5 min) analysis on C18 column with mobile phases consisting methanol, ammonium acetate, formic acid and water.
Standards are prepared in rat serum to cover the analytical range 0.1 to 300 ng/ml. Standards, blank serum and study samples are applied to 96 deepwell plate and proteins are precipitated by addition of acetonitrile containing internal standard. Samples are analysed on LC-MS/MS usually overnight. Integration and quantification is performed on ration between analyte and internal standard using Analyst software version 1.5. Pharmacokinetic parameters are calculated using a standardised Excel spreadsheet.

| Compound | Cmax |
| --- | --- |
| O=C(Cc1c(Cl)cncc1Cl)c1ccc(OC(F)F)c2c1OC1(CCOCC1)O2 [Compound 105, 2-(3,5-Dichloropyridine-4-yl)-1-(7-difluoromethoxy-2′,3′,5′,6′-tetrahydro-spiro[1,3-benzodioxole-2,4′-(4H)-pyran]-4-yl)ethanone] | < 3 ng/mL |
| O=C(Cc1c(Cl)c[n+]([O-])cc1Cl)c1ccc(OC(F)F)c2c1OC1(CCOCC1)O2 [Compound 106, 2-(3,5-Dichloro-1-oxido-pyridine-4-yl)-1-(7-difluoromethoxy-2′,3′,5′,6′-tetrahydro-spiro[1,3-benzodioxole-2,4′-(4H)-pyran]-4-yl)ethanone] | 133 ng/mL |

target: Human recombinant PDE4 (Genbank accession no NM-006203) (Homo sapiens (Human), UniProt Q08499); assay: PDE4 Assay (SPA, cAMP cleavage); type: biochemical; conditions: human recombinant PDE4, 1 hour incubation, cAMP 1x10-5 M; read-out: IC50 (PDE4)
Sequence (Q08499 other isoform, or with tags, fused parts or gaps): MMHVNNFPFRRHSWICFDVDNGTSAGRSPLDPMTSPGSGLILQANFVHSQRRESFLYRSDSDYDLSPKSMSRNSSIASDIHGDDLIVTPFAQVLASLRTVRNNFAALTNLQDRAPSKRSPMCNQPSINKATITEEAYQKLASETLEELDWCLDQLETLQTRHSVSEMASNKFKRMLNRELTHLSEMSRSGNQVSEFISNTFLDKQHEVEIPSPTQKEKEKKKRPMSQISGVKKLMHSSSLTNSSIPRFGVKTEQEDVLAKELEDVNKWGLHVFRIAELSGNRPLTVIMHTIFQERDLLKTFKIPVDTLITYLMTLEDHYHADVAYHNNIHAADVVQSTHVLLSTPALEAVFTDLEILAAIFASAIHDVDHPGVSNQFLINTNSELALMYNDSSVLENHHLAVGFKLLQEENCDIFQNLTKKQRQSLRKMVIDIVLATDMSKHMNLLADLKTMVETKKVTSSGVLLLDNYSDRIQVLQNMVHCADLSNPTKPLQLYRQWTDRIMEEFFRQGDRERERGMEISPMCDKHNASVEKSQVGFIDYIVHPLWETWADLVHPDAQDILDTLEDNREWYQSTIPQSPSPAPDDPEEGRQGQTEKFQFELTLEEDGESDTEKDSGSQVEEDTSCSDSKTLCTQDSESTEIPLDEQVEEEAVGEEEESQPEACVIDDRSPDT
Description: Human recombinant PDE4 (Genbank accession no NM_006203) was incubated for 1 hour, with the test compound at concentrations up to 10 μM, with cAMP (1×10^-5M), and with a low amount (0.021 MBq) of radioactively labelled cAMP. At the end of the incubation, the cleavage of the substrate was evaluated by the binding of the AMP product to SPA beads, which generate chemoluminescence when bound to the radioactive tracer. The AMP product inhibited the binding of the radioactive tracer to the beads, and the luminescent signal was competed.
The results were calculated as the molar concentrations resulting in 50% inhibition of the substrate cleavage compared to controls samples, and are expressed as IC50 (M).

| Compound | IC50 |
| --- | --- |
| O=C(Cc1c(Cl)cncc1Cl)c1ccc(OC(F)F)c2c1OCC1(COC1)CO2 [Compound 101, 2-(3,5-Dichloropyridin-4-yl)-1-{9-difluoromethoxy-spiro[2H-1,5-benzodioxepin-3(4H),3′-oxetane]-6-yl}ethanone] | 6 nM |
| O=C(Cc1c(Cl)c[n+]([O-])cc1Cl)c1ccc(OC(F)F)c2c1OCC1(CCOCC1)CO2 [Compound 104, 2-(3,5-Dichloro-1-oxido-pyridin-4-yl)-1-{9-difluoromethoxy-spiro[2H-1,5-benzodioxepin-3(4H),4′-tetrahydropyran]-6-yl}ethanone] | 4 nM |
| O=C(Cc1c(Cl)c[n+]([O-])cc1Cl)c1ccc(OC(F)F)c2c1OC1(CCS(=O)(=O)CC1)O2 [Compound 108, 2-(3,5-Dichloro-1-oxido-pyridine-4-yl)-1-(7-difluoromethoxy-2′,3′,5′,6′-tetrahydro-spiro[1,3-benzodioxole-2, 4′-(4H)-thiopyran-1′,1′-dioxide]-4-yl)ethanone] | 16 nM |
| O=C(Nc1c(Cl)cncc1Cl)c1ccc(OC(F)F)c2c1OC1(CCSCC1)O2 [Compound 110, N-(3,5-Dichloro-4-pyridyl)-7-Difluoromethoxy-2′,3′,5′,6′-tetrahydro-spiro[1,3-benzodioxole-2,4′-(4H)-thiopyran]-4-carbamide] | 2 nM |
| O=C(Nc1c(Cl)c[n+]([O-])cc1Cl)c1ccc(OC(F)F)c2c1OC1(CCS(=O)(=O)CC1)O2 [Compound 111, N-(3,5-dichloro-1-oxo-4-pyridyl)-7-(difluoromethoxy)-1′,1′-dioxo-spiro[1,3-benzodioxole-2,4′-thiane]-4-carboxamide] | 106 nM |

Other lines, results leading:

| IC50 | Compound |
| --- | --- |
| 6 nM | O=C(Cc1c(Cl)cncc1Cl)c1ccc(OC(F)F)c2c1OCC1(CCOCC1)CO2 [Compound 103, 2-(3,5-Dichloropyridin-4-yl)-1-{9-difluoromethoxy-spiro[2H-1,5-benzodioxepin-3(4H),4′-tetrahydropyran]-6-yl}ethanone] |
| 7 nM | O=C(Cc1c(Cl)cncc1Cl)c1ccc(OC(F)F)c2c1OC1(CCOCC1)O2 [Compound 105, 2-(3,5-Dichloropyridine-4-yl)-1-(7-difluoromethoxy-2′,3′,5′,6′-tetrahydro-spiro[1,3-benzodioxole-2,4′-(4H)-pyran]-4-yl)ethanone] |
| 5 nM | O=C(Cc1c(Cl)c[n+]([O-])cc1Cl)c1ccc(OC(F)F)c2c1OC1(CCOCC1)O2 [Compound 106, 2-(3,5-Dichloro-1-oxido-pyridine-4-yl)-1-(7-difluoromethoxy-2′,3′,5′,6′-tetrahydro-spiro[1,3-benzodioxole-2,4′-(4H)-pyran]-4-yl)ethanone] |
| 13 nM | O=C(Cc1c(Cl)cncc1Cl)c1ccc(OC(F)F)c2c1OC1(CCS(=O)(=O)CC1)O2 [Compound 109, 2-(3,5-Dichloropyridine-4-yl)-1-(7-difluoromethoxy-2′,3′,5′,6′-tetrahydro-spiro[1,3-benzodioxole-2, 4′-(4H)-thiopyran-1′,1′-dioxide]-4-yl)ethanone] |

same assay, conditions: stated in text of example 15; read-out: PDE4 activity

| Compound | IC50 |
| --- | --- |
| O=C(Cc1c(Cl)cncc1Cl)c1ccc(O)c2c1OC1(CCOCC1)O2 [Compound 403, 2-(3,5-Dichloropyridine-4-yl)-1-(7-hydroxy-2′,3′,5′,6′-tetrahydro-spiro[1,3-benzodioxole-2,4′-(4H)-pyran]-4-yl)ethanone] | 5000 nM |

Source: US8980905B2, “Benzodioxole or benzodioxepine heterocyclic compounds as phosphodiesterase inhibitors” (Leo Pharma A/S, priority 2010, dated 2015)
